Laboratory results reported in US20070249555A1, “Use of Atp Analogues for Treatment of Cardiovascular Diseases” (INSTITUT NATIONAL DE LA SANTE ET DE LA RECHERCHE MEDICALE …, priority 2004, published 2007).

Assays:
human P2Y13 receptor [1] = target: T1, human P2Y13 receptor (Homo sapiens, UniProt Q9BPV8); experiment: forskolin-induced cAMP formation in hP2Y13-CHO-K1 cells; format: cell-based; details: forskolin 3 μM; for maximal inhibition (decrease) of forskolin-induced cAMP accumulation / IC50: hP2Y13-CHO-K1 cells, 12 min; for IC50: read-out: IC50 for inhibition of forskolin-induced cAMP accumulation
T1 construct: expressed in transfected cells
T1 sequence (Q9BPV8 22-354 limits assumed): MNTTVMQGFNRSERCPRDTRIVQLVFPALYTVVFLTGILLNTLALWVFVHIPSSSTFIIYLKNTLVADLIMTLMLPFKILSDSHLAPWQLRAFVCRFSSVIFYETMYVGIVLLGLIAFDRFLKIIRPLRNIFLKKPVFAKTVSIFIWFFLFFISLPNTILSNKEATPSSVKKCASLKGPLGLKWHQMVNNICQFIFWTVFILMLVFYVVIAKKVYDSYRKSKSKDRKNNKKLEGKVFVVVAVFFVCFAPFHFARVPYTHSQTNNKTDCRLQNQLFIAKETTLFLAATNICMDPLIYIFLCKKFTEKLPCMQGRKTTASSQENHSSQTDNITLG
Protocol: The cells were incubated with various concentrations of these agents for 12 min as described in “Materials and Methods”. Data are expressed in % on the value with forskolin alone and presented as mean ±S.D. of triplicates in one representative experiment out of 4.
AR-C69931MX and ADP (at increasing concentrations) were added simultaneously with forskolin to hP2Y13-CHO-K1 cells for a 12 min incubation period. Data are expressed in % of the value with forskolin alone and presented as mean ±S.D. of triplicates in one representative experiment out of 2. (▴): ADP without AR-C69931MW; (●): ADP+AR-C69931MX (100 nM).
The cyclic AMP assays was performed on CHO-K1 cell lines expressing recombinant P2Y receptors as follows.
The CHO-K1 cell line stably expressing the human P2Y13 receptor has been previously described (Communi et al., J Biol Chem, 2001, 276: 41479-85). The plasmid of human P2Y12 receptor (hP2Y12-pEFIN5) was obtained from Euroscreen (Gosselies, Belgium) and was stably transfected into CHO-K1 cells by using the FuGENETM6 transfection reagent (Roche Applied Science, Mannheim, Germany). Transfected cells were selected using G418 (400 μg/ml). The hP2Y13-CHO-K1 and HP2Y12-CHO-K1 cells were grown in Ham'S F12 cell culture medium (Invitrogen-France) supplemented with fetal bovine serum (10%, v/v), penicillin (100 units/ml), streptomycin (100 μg/ml) and G418 (400 μg/ml).
The stably transfected CHO-K1 cells (200,000 cells/dish) were seeded on 35-mm diameter cell culture dishes in complete medium one day before the experiment. Cells were incubated for 2 hours in Krebs-Ringer-Hepes (KRH) buffer (124 mM NaCl, 5 mM KCl, 1.25 mM MgSO4, 1.45 mM CaCl2, 1.25 mM KH2PO4, 25 mM HEPES, pH 7.4, and 8 mM D-glucose) containing 25 μM Rolipram. Nucleotides were then added in presence of 3 μM forskolin, usually for a 12 min incubation (37° C.). The reactions were stopped by aspiration of the incubation medium and addition of 1 ml of 0.1 M HCl. The lysates were then vacuum dried and re-suspended in an appropriate volume of water. Cyclic AMP was quantified by 125l radioimmunoassay, as described in Communi et al., J Biol Chem, 2001, 276: 41479-85.

human P2Y13 receptor [2] = target: T2, human P2Y13 receptor (Homo sapiens, UniProt Q9BPV8); experiment: TG-HDL2 internalization by HepG2 cells after P2Y13 receptor silencing by siRNA; format: cell-based; details: HepG2, P2Y13 siRNA 100 nM, 48 h; apoA-I 10 μg/ml, ADP 100 nM, AR-C69931MX 100 nM
T2 construct: host or cells: HepG2
T2 sequence (Q9BPV8 1-354): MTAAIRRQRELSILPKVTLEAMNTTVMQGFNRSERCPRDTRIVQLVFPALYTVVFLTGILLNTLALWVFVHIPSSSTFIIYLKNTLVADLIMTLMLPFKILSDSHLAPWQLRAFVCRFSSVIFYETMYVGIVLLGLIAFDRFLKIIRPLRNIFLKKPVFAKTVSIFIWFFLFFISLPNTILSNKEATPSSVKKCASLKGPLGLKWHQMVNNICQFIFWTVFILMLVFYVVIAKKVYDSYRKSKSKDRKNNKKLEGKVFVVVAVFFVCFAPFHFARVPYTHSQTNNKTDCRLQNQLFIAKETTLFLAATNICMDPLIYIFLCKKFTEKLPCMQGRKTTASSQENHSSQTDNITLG
Protocol: Experiment was performed as in FIG. 2A with non-specific control siRNA (a, b, c) or with siRNA directed to human P2Y13 receptor (d, e, f, g) (n>7); (*) p<0.05 (unpaired t-test).
(§1) Internalization assays were performed as described in Guendouzi et al., (Biochemistry, 1998, 37: 14974-80) on HepG2 cells, obtained from the American Type Culture Collection ([…]). Cells were incubated for 10 minutes at 37° C. with 75 μg/ml of either ^125I-TG-HDL2, ^125I-HDL3 or ^125I-LDL. After washing and dissociation at 4° C. in phosphate buffered saline (PBS), cell radioactivity was determined using a Wallac 1261 multigamma apparatus.
(§2) The silencing of the different P2Y receptors were carried-out using the siRNA technique. The siRNA sequenced targeting human P2Y13 receptor (Gene Bank GB/EMBL/DDBJ accession number AF295368) was from position 406 or 359 relative to the start codon. The siRNA duplex (21-nt-RNAs) in deprotected and desalted form, the siRNA targeting human P2Y1 receptor (a mix of 4 siRNAs, M-005689), and the non-specific control siRNA (D-001206-01) were purchased from Dharmacon Inc. Subconfluent HepG2 cells were transiently transfected with siRNAs (final concentration, 100 nM) using Oligofectamine™ according to the manufacturer's protocole (Invitrogen). Cells were usually assayed 48 hours after transfection. Specific silencing effect was confirmed by at least three independent experiments.
Results are expressed as a percentage of internalization with respect to the control value (set at 0). Control corresponded to a basal value of internalization, amounting to 400 ng, 300 ng, 200 ng of TG-HDL2, HDL3 and LDL per mg of cells protein respectively for 10 minutes. Data as a mean ±SEM of at least 7, 5, 6 independent experiments, for TG-HDL2, HDL3 and LDL respectively.

HepG2 cells = experiment: LDL internalization by HepG2 cells, without or with P2Y13 receptor silencing; format: cell-based, human; details: HepG2, 75 μg/ml 125I-LDL, 100 nM, both without or with P2Y13 receptors silencing
Protocol: Experiment was performed as in FIG. 2C except that HepG2 cells were incubated for 10 minutes at 37° C. with 75 μg/ml ^125I-LDL (n>6).
as §1
as §2, with “Specific silencing effect was confirmed by at least three independent experiments.” left out
Results are expressed as a percentage of internalization with respect to the control value (set at 0). […]

| Compound | maximal inhibition (decrease) of forskolin-induced cAMP accumulation (human P2Y13 receptor [1]) | IC50 (human P2Y13 receptor [1]) | effect of P2Y13 receptor silencing on TG-HDL2 endocytosis after stimulation (human P2Y13 receptor [2]) | stimulation of internalization of 125I-labelled LDL (HepG2 cells) | behaviour at P2Y13 receptor (modulation of ADP effect on cAMP) (human P2Y13 receptor [1]; AR-C69931MX 100 nM with increasing ADP) |
| --- | --- | --- | --- | --- | --- |
| Nc1ncnc2c1ncn2[C@@H]1O[C@H](COP(=O)(O)OP(=O)(O)O)[C@@H](O)[C@H]1O [ADP, adenosine diphosphate, reference compound] | 70% | 0.6 ± 0.2 nM | dramatic inhibition | lack of stimulation |  |
| CSCCNc1nc(SCCC(F)(F)F)nc2c1ncn2[C@@H]1O[C@H](COP(=O)(O)OP(=O)(O)C(Cl)(Cl)P(=O)(O)O)[C@@H](O)[C@H]1O [AR-C69931MX, N-[2-(methylthio)ethyl]-2-[(3,3,3-trifluoropropyl)thio]-5′-adenylic acid, monoanhydride with dichloromethylenebisphosphonic acid] | 25% | 0.5 ± 0.1 nM | dramatic inhibition | lack of stimulation | partial agonist |
